In patent US9862746B2, “Compositions and methods relating to hindering DOT1L recruitment by MLL-fusion proteins” (The Regents of the University of Michigan, priority 2013, dated 2018):
Where two headings read alike, the source gives them in different places.

What was measured:
[1] = test system: H3K79 methylation; assay: Global H3K79 methylation in MLL-AF9 transformed cells; format: cell-based, mouse; details: 6 days treatment of MLL-AF9 transformed cells
From the text: (§1) FIG. 23 presents cell growth curves of A) MLL-AF9 and B) Hoxa9/Meis1 transformed mouse cells and C) adult LSKs after treatment with 38. D) H3K79 methylation after 6 days treatment with 38 and EPZ004777 DOT1L inhibitor (see, e.g., Daigle, et al., Cancer Cell 20, 53-65 (2011)).
(§2) This example involves the assessment of cellular effects of compound 38. […] Compound 38 inhibited growth of MLL-AF9 cells in a dose-dependent manner (FIG. 23A), with cell growth inhibition starting after 4 days of treatment. […] The hypothesis predicts that compounds that can block the DOT1L recruitment, but not its catalytic activity, will not affect normal hematopoiesis, as well as the global level of H3K79 methylation. To test this hypothesis, the toxicity of compound 38 was tested on purified LSK (lin-sca-1+ckit+) progenitors from adult wild type mice (FIG. 23C).

[2] = target: T1, AF9 (Homo sapiens, UniProt P42568); assay: OctetRed Bio-Layer Interferometry binding to immobilized AF9; details: OctetRed BLI
T1 sequence (P42568 1-568): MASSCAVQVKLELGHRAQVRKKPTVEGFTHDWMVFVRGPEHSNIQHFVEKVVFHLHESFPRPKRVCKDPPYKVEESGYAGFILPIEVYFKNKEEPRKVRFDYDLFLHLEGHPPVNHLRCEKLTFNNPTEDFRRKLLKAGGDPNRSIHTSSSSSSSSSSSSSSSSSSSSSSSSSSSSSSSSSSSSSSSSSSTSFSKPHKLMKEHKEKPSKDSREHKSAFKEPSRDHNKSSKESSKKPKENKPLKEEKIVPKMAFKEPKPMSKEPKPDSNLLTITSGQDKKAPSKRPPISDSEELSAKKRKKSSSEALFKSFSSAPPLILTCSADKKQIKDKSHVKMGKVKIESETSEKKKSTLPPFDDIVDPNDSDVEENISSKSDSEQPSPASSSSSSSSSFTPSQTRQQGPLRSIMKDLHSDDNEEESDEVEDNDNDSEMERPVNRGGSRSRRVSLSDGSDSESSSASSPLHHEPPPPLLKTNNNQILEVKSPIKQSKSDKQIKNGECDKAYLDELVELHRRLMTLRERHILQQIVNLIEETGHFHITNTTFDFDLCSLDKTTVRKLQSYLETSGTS
Experimental: (§3) C) Globally fitted concentration series of 38 (100, 50, 25, 12.5 and 6.25 μM) binding to immobilized AF9 using OctetRed System (see Example 12).
Finally, an orthogonal measure of the disruption of the DOT1L/AF9 protein interaction was obtained using OctetRed system with Bio-Layer Interferometry (BLI) technology. This technology is allowing label-free, real-time biomolecular analysis and determination of binding kinetics and affinity. […] Using global fitting of the binding data in several tested concentrations, the kinetic parameters were calculated. The observed KD values ranged from 10 μM to 50 μM, consistent with the KD from steady state calculations.

[3] = target: T1, AF9; assay: Saturation Transfer Difference (STD) NMR; format: binding
Experimental: as §3
(§4) To provide further validation of the hit selection in addition to the biochemical assays Saturation Transfer Difference (STD), NMR spectroscopy was used. NMR spectroscopy has been successfully utilized to detect and characterize the direct binding of small-molecule compounds to large biomolecules. This technique is also allowing characterization of the binding interactions and maps the ligand-protein contacts in the bound state, delineating which chemical moieties of the ligand molecule are key for molecular recognition by the protein (group epitope mapping, FIG. 20A). […] The direct binding of 38 was also confirmed with ThermoFluor biophysical binding assay. ThermoFluor exploits a well-known biophysical phenomenon where small changes in the intrinsic melting temperature of proteins in the presence of ligands are related to the equilibrium-binding constant. Compounds that interact with the native form of the protein will shift the equilibrium to the left, increasing the Tm, the temperature at which half the protein is unfolded. In the presence of compound 38, the Tm of MBP-AF9 protein increases in a dose-dependent manner, giving ΔTm of 1.2 degree in […] (FIG. 20B).

[4] = target: MBP tag (Escherichia coli, UniProt P0AEX9); assay: ThermoFluor binding assay, MBP tag only
[5] = test system: MLL-AF9 transformed mouse cells; assay: Cell growth of MLL-AF9 transformed mouse cells; format: cell-based; details: 216 h
From the text: as §1, §2

[6] = target: T2, MBP-AF9 (Homo sapiens, UniProt P42568); assay: ThermoFluor binding assay, MBP-AF9
T2 sequence (P42568 497-568): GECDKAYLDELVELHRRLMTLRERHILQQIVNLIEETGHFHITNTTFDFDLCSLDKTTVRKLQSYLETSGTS
Experimental: as §3, §4

[7] = target: T3, AF9 (Homo sapiens, UniProt P42568); assay: SPR competitive binding assay of small molecules, AF9-DOT1L; parameters: against AF9(497-568) and ENL (489-559) proteins running different tested concentrations over CM5 chip; GB1 (pGB1-LIC vector); made in house; host or cells: Escherichia coli BL21 (DE3); details: SPR competitive based assay; read-out: AF9 IC50 ± SD
T3 sequence (P42568 497-568): T2 sequence (P42568 497-568)
From the text: Several secondary assays have already been developed to support hit confirmation and the hit-to-probe optimization process. The established and optimized SPR-based competitive assay utilizing DOT1L protein (826-1095) immobilized on the CM5 sensor chip was used as a secondary counter screen assay to validate binding of compounds to AF9. […] Both assays gave similar IC50 values.
(§5) To further validate the binding of the confirmed compounds and identify potential promiscuous inhibitors, several secondary assays have been developed to support hit confirmation and the hit-to-probe optimization process. In order to determine that the compounds bind effectively to the target and disrupt protein-protein interaction, a SPR competitive binding assay was used. This assay uses a platform that differs from the FP-based assay where DOT1L recombinant protein (residues […]) is immobilized on a CM5 chip, allowing for testing of the inhibitors for their ability to disrupt AF9-DOT1L protein-protein interactions.

[8] = test system: LSK (lin-sca-1+ckit+) progenitors; assay: Toxicity on purified adult LSK progenitors; format: cell-based, mouse; details: 50 μM and 25 μM, up to seven days in culture
From the text: as §1, §2

[9] = test system: HM2 cells stably expressing Hoxa9 and Meis 1; assay: Cell growth of HM2 (Hoxa9/Meis1) cells; format: cell-based, mouse
From the text: as §1, §2

[10] = target: T4, ENL (Homo sapiens, UniProt Q03111); assay: SPR competitive binding assay of small molecules, ENL; details: SPR competitive based assay; read-out: ENL IC50 ± SD
T4 construct: against AF9(497-568) and ENL (489-559) proteins running different tested concentrations over CM5 chip; MBP (pMSCG9-LIC vector); made in house; host or cells: Escherichia coli BL21 (DE3)
T4 sequence (Q03111 489-559): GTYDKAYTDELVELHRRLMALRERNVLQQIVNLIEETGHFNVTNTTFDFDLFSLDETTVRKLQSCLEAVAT
From the text: as §5
This class of compounds was also tested for their binding against ENL protein, which is highly homologous with AF9.

Q: Which results are given for CCc1ccc(S(=O)(=O)N2c3ccccc3NC3=C(C(=O)CCC3)C2c2ccco2)cc1 (racemic) [Compound 38]?
A: global H3K79 methylation level [1]: not affected; Kd ([2]; several tested concentrations, read-out: KD values, global fitting of binding data): 10 to 50 µM; Kd ([2]; read-out: binding affinity (KD), steady state analysis): 35 µM; STD effects (direct binding to AF9) [3]: strong STD effects; thermal stability of tag MBP only [4]: did not show any changes in thermal stability; inhibition at 25 µM ([5]; day 9, 25 μM): 50%; inhibition at 50 µM ([5]; day 9, 50 μM): ~90%; ΔTm of MBP-AF9 protein [6]: 1.2 degree; IC50 [7]: 40 ± 1.5 µM; toxicity / growth inhibition of adult LSKs [8]: not toxic to normal hematopoiesis; cell growth of HM2 cells [9]: not affected; IC50 [10]: 30.7 ± 7.7 µM
